# Measurements taken from PMC9223397 (International Journal of Molecular Sciences, 2022).
# How the values were obtained:
# [1] = system: spinal α-MNs in SOD1^G93A mice; assay: Spinal MN counts in SOD1G93A mice; format: in vivo, SOD1^G93A male mice; settings: 5 mg/kg i.p.; 16 weeks of age; untreated 6.9 ± 0.5, WT 25.3 ± 0.5
# Method: (§1) The compounds were dissolved in 0.5% hydroxypropyl-methylcellulose (HPMC; H7509, Sigma-Aldrich) in distilled water and were administered by intraperitoneal (i.p.) route twice daily (bid) in a volume of 10 mL/kg. Administrations were given from 30 min after rhizotomy surgery until 42 days post-injury (dpi), the end of the study; in the SOD1^G93A study, treatments were given from 8 to 16 weeks of age (see Figure 6).
# (§2) At the end of follow-up (42 dpi for rhizotomy and 16 weeks of age for ALS mice; Figure 6), the animals were deeply anesthetized and transcardially perfused with 4% PFA in PBS. The lumbar spinal cord and the TA muscle were harvested and cryopreserved in 30% sucrose solution in PB. The spinal cords were serially cut in 20 µm thick transverse sections with a cryostat (Leica, Mannheim, Germany). For MN counting, L4-L5 spinal cord sections separated 100 µm were stained for 3 h with an acidified solution of 3.1 mM cresyl violet. MNs were identified by their localization in the lateral ventral horn of the spinal cord and were counted following strict size and morphological criteria: only MNs with a diameter larger than 20 µm, polygonal shape, and prominent nucleoli were counted.
# [2] = system: spinal MNs after L4-L5 rhizotomy; assay: MN survival after L4-L5 rhizotomy (cresyl violet MN counts); format: in vivo, female mice (B6SJL)
# Method: Surgeries were performed on three-month-old mice under anesthesia with ketamine-xylazine (100–10 mg/kg i.p.) as previously described. Briefly, the L4-L5 spinal roots were exposed by a small laminectomy on the right side. Afterwards, roots were cut at the exit from the intervertebral foramina, and the root stumps were separated. Mice were cared for until recovery in a warm environment. Analgesia was provided with buprenorphine (0.1 mg/kg) for the next 48 h post-surgery.
# as §1, §2
# [3] = Tolerability of chronic administration in rhizotomy mice; format: in vivo; settings: twice daily i.p. for 6 weeks, 0.5 and 5 mg/kg
# Method: as §1
# [4] = system: microglia and astrocytes in ventral horn of SOD1^G93A mice; assay: Glial reactivity in SOD1G93A mice (Iba1, GFAP); format: in vivo, SOD1^G93A male mice; settings: 5 mg/kg i.p.; 16 weeks of age
# Method: as §1
# For glial cells immunofluorescence, other lumbar spinal cord sections were blocked with 10% normal donkey serum and incubated overnight with primary antibodies rabbit anti-Iba1 (1:500; 019–19741, Wako) and rat anti-GFAP (1:500; 13-0300, Invitrogen) to label microglia and astroglia, respectively. After several washes, sections were incubated with secondary antibodies Alexa Fluor 488-donkey anti-rat (1:500; A-21208, Invitrogen) or Alexa Fluor 594 donkey anti-rabbit (1:500; A21207, Invitrogen). Finally, sides were mounted with Fluoromount-G. To quantify glial cell reactivity, images of the ventral horn were acquired with an epifluorescence microscope (Nikon Eclipse Ni, Japan) using the same conditions for each analyzed marker. After defining a threshold for background correction, the integrated density of GFAP or Iba1 labeling was measured using ImageJ software.
# [5] = biological target: T1, human Sigma-2 receptor (Sig-2R) (Homo sapiens, UniProt Q5BJF2); assay: Human Sig-2R radioligand assay; format: binding; settings: [3H]-DTG, transfected HEK-293 Sig-1R knockout membranes
# T1 construct: expressed in transfected cells; host or cells: HEK-293 Sig-1R knockout (membranes)
# T1 sequence (Q5BJF2 whole entry): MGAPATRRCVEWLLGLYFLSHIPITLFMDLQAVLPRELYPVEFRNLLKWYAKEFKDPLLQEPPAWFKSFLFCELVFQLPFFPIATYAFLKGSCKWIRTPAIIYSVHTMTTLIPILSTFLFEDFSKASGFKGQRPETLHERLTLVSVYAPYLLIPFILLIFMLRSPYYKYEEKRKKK
# Method: The binding properties of the compounds to the human Sig-2R were similarly studied in transfected HEK-293 Sig-1R knockout membranes using [^3H]-1,3-di-o-tolylguanidine (DTG) (NET-986, PerkinElmer; Boston, USA) as the radioligand. The assay was carried out with 15 μg of membrane suspension, [^3H]-1,3-di-o-tolylguanidine (DTG) (10 nM, 100 μL), in either the absence or presence of either buffer or 10 μM haloperidol for total (TB) and nonspecific (NSB) binding, respectively, or the corresponding compound concentration. Binding buffer contained Tris-HCl (50 mM, pH 7.4). Plates were incubated at 25 °C for 120 min. After incubation, the reaction mix was transferred to MultiScreen HTS, FC plates (Merck Millipore) presoaked in 0.5% polyethyleneimine, and filtered. Following that, plates were washed with ice-cold Tris-HCl (10 mM, pH 8). Filters were dried and counted, and data were processed as above.
# SOD1^G93A mice = assay: Motor nerve conduction tests in SOD1G93A mice; format: in vivo, SOD1^G93A male mice
# Method: as §1
# Motor nerve conduction tests were performed before the surgery to obtain baseline values and at the end of the follow-up in the rhizotomy model, whereas the SOD1^G93A mice were evaluated at 8 weeks (prior to starting drug administration) and then every 2–3 weeks until the end point at 16 weeks of age (Figure 6). The sciatic nerve was stimulated by means of single pulses of 50 µs duration delivered from a Grass S88 stimulator through needle electrodes placed at the sciatic notch. The CMAP was recorded from TA, GM, and plantar interossei muscles with microneedle electrodes, with the active electrode being placed in the muscle and the reference at the fourth toe. […] The mice were anesthetized with pentobarbital (50 mg/kg i.p.), and their body temperature was maintained by means of a thermostatic warming pad.
# [6] = system: NMJs of hindlimb muscle in SOD1^G93A mice; assay: Neuromuscular junction innervation in SOD1G93A mice; format: in vivo, SOD1^G93A male mice; settings: 5 mg/kg i.p.; 16 weeks of age
# Method: as §1
# For neuromuscular junction (NMJ) labeling, 50 µm thick longitudinal sections of TA muscle were serially cut. Sections were blocked with 5% normal donkey serum and incubated with primary antibodies rabbit anti-synaptophysin (1:500; Ab32127, Abcam, Cambridge, UK) and chicken anti-neurofilament 200 (NF200, 1:1000; AB5539, Millipore, Burlington, MS, USA) 48 h at 4 °C. After washes, sections were incubated overnight with secondary antibody Alexa Fluor 594-donkey anti-rabbit and anti-chicken (1:200; A11042-A21207, Invitrogen, USA) and Alexa 488 conjugated α-bungarotoxin (1:500; B13422, Life Technologies, Carlsbad, CA USA). Confocal images were captured (LSM 700 Axio Observer, Carl Zeiss, Jena, Germany, 40xOil/z0.5), and the maximum projection images generated from 1.3 µm z projections. The proportion of innervated NMJs was calculated by classifying each endplate as occupied (when presynaptic terminals overlie the endplate) or vacant (no presynaptic label in contact with the endplate). At least 60 endplates were analyzed per muscle.
# [7] = system: SMI-32-positive MNs in spinal cord organotypic cultures; assay: Spinal cord organotypic cultures (SCOC) under chronic excitotoxicity (THA); format: cell-based, Sprague–Dawley rats; settings: THA 100 µM, 28 DIV; tested at 0.03, 0.3, 3, 30 µM
# Method: SCOCs from lumbar sections of 8-day-old Sprague–Dawley rats were prepared as previously described [39]. Briefly, the spinal cord was collected and cut into 350 μm thick transverse sections with a McIlwain Tissue Chopper. Four lumbar sections were transferred onto Millicell-CM nets (0.4 μm, PICM03050, Millipore) in medium (50% (v/v) minimal essential medium (MEM, M5775, Sigma), 2 mM glutamine, 25 mM HEPES, 25% (v/v) Hank’s Balanced Salt Solution (HBSS^−/−;14175, Gibco; UK) supplemented with 25.6 mg/mL glucose, and 25% (v/v) heat-inactivated horse serum (26050-088, Gibco; New Zealand), pH = 7.2). Cultures were maintained at 37 °C in a 5% CO2 humidified cabin and left to stabilize. After 7 days in vitro (DIV), DL-threo-β-hydroxyaspartic acid (THA; 100 μM: H2775, Sigma Aldrich, St. Louis, MI, USA) was added to induce chronic excitotoxicity [28]. […] In vitro experiments were performed in three independent cultures, with at least 12 different SCOCs for each experimental condition.
# Slices were maintained for 28 DIV and then fixed with 4% PFA. […] MN survival was assessed by counting all SMI-32-positive neurons in each spinal cord using the Cell Counter plugin of ImageJ software.
# [8] = 0.5 mg/kg bid i.p., 42 dpi, not significant
# [9] = 5 mg/kg/bid i.p. 6 weeks, 42 days after injury, untreated injured 6.8 ± 0.3
# [10] = 5 mg/kg i.p. from 8 weeks of age, early (11 weeks) and mid (13 weeks) stages
SMILES,Number of surviving spinal α-MNs [1] [MNs per section],"Number of spinal MNs ± SEM, ipsilateral ventral horn [2, 8]","Number of spinal MNs ± SEM, ipsilateral ventral horn [2, 9]","Toxicity of chronic administration (behavior, body weight) [3]",Astrocyte activation (GFAP) [4],Microglial activation (Iba1) [4],IC50 [5] [µM],CMAP amplitude of TA and plantar muscles vs vehicle (SOD1^G93A mice; [10]),"CMAP amplitude of TA and plantar muscles vs vehicle (SOD1^G93A mice; 5 mg/kg i.p., at 16 weeks of age)",Proportion of innervated endplates (NMJ) vs vehicle [6],Number of SMI-32-positive MNs vs THA condition [7]
C[C@@H]1OC2(CCN(Cc3ccc(F)cc3)CC2)CN(C)C1=O [EST79232],10.8 ± 1.1,7.6 ± 0.9,8.6 ± 0.6,did not cause overt toxicity in the animals,significant decrease in astrocyte activation,did not reduce microglial activation,> 10,significantly prevented the decline in amplitude of the CMAP of TA and plantar muscles,effect was reduced to levels found in the vehicle group,"tendency to preserve NMJ innervation, although differences did not reach statistical significance",significantly more SMI-32-positive neurons at three concentrations tested
CCN1CC2(CCN(Cc3ccc(C#N)c(F)c3)CC2)O[C@@H](C)C1=O [EST79376],8.5 ± 1.0,7.4 ± 0.7,8.7 ± 0.5,did not cause overt toxicity in the animals,significant decrease in astrocyte activation,did not reduce microglial activation,> 10,only showed significant preservation of the CMAP amplitude in the plantar muscle at 13 weeks of age,–,"tendency to preserve NMJ innervation, although differences did not reach statistical significance",significantly preserved MNs
